Assay results taken from patent publication US7879872B2, “Compositions comprising multiple bioactive agents, and methods of using the same” (Affinium Pharmaceuticals, Inc., priority 2003, dated 2011).

Columns and labels:
Assay type in all cases: cell-based
[1] = system: S. mitis SMI_116; test: checkerboard combination, clinical bacterial isolates (FIC)
Protocol: (§1) The combination experiments were performed and the results were interpreted using the checkerboard method as described in Eliopoulous, G. M., and R. C. Moellering, 1996, Antimicrobial combinations, p. 330-396, In V. Lorian (ed.), Antibiotics in laboratory medicine, 4th ed., The Williams & Wilkins Co., Baltimore, Md., in 96-well microtiter plates. Compound A was serially diluted along the x-axis of the test plate to a final volume of 50 μl, and compound B was serially diluted in a separate transfer plate. Dilutions in both plates were made in CAMHB (cation-adjusted Mueller Hinton broth) for Staphylococci and in CAMHB+5% sheep blood for Streptococci. Aliquots (50 μl) of Compound B were transferred to the test plate along the y-axis thereby achieving a checkerboard matrix of antimicrobial combinations (100 μl total volume) as in FIG. 4. The first column and last row (shaded in FIG. 4) contained only compound B or compound A, respectively. Plates were then inoculated with 10 μl of the test microorganism and MICs were determined according to NCCLS guidelines (see National Committee for Clinical Laboratory Standards, 2000, Methods for Dilution Antimicrobial Susceptibility Tests for Bacteria That Grow Aerobically—Fifth Edition, Approved Standard M7-A5, NCCLS, Wayne, Pa., USA.)
(§2) Data analysis was performed as follows and according to Eliopoulous, G. M., and R. C. Moellering, 1996, Antimicrobial combinations, p. 330-396, In V. Lorian (ed.), Antibiotics in laboratory medicine, 4th ed., The Williams & Wilkins Co., Baltimore, Md. First individual FIC values for each combination in a plate were calculated: FIC(Fractional Inhibitory Concentration)=FICA+FICB • FICA=MICA+B/MICA i.e. the MIC of combination of compound A+compound B divided by the MIC of compound A alone. • FICB=MICB+A/MICB i.e. the MIC of combination of compound B+compound A divided by the MIC of compound B alone.
(§3) FIC values were calculated only for combinations that enabled determination of a true MIC (e.g. not > or <=values). FIC indexes were then calculated as the average of individual FIC values for each combination plate.

[2] = system: S. aureus SA_A6250596; test: as above; details: S. aureus SA_A6250596 (MRSA-MDR)
Protocol: as §1, §2, §3

[3] = system: S. pneumoniae SP_22425; test: as above; details: S. pneumoniae SP_22425 (PenR EryR ClinR)
Protocol: as §1, §2, §3

[4] = system: P. aeruginosa PA_27853; test: as above
Protocol: as §1, §2, §3

[5] = system: S. aureus SA_A7080336; test: as above; details: S. aureus SA_A7080336 (MRSA)
Protocol: as §1, §2, §3

[6] = system: S. aureus SA_29213; test: as above; details: S. aureus SA_29213 (MSSA)
Protocol: as §1, §2, §3

[7] = system: E. coli EC_25922; test: as above
Protocol: as §1, §2, §3

[8] = system: E. faecalis EF_A6221420; test: as above; details: E. faecalis EF_A6221420 (VRE)
Protocol: as §1, §2, §3

[9] = system: H. influenzae HI_49247; test: as above; details: compound G with Azithromycin
Protocol: as §1, §2, §3

[10] = system: S. pyogenes SPY_20015; test: as above; details: compound G with Gatifloxacin
Protocol: as §1, §2, §3

[11] = system: S. pneumoniae SP_22257; test: as above; details: compound G with Azithromycin; S. pneumoniae SP_22257 (PenR EryS ClinS)
Protocol: as §1, §2, §3

[12] = system: S. pyogenes SPY_20061; test: as above; details: S. pyogenes SPY_20061 (EryS)
Protocol: as §1, §2, §3

[13] = system: S. epidermidis SE_A7100750; test: as above; details: S. epidermidis SE_A7100750 (MRSE CipR)
Protocol: as §1, §2, §3

[14] = system: S. pneumoniae 22425, a penicillin and macrolide resistant clinical isolate; test: Combination time-kill studies; details: compound alone at both 0.03 μg/ml and 1 μg/ml; S. pneumoniae 22425; FIG. 8
Protocol: Combination time-kill studies were performed as follows. Bacterial inocula were prepared as for MIC determination according to CLSI guidelines. Log phase cells (˜10^6 CFU/ml) were inoculated into 24 well plates and incubated with the indicated concentrations of compound G and commercial antibiotics for 24 hours at 35° C. At indicated time points samples were removed for determination of viable CFU counts. Results are plotted as log CFU/ml vs. time.

## Cc1c(CN(C)C(=O)/C=C/c2cnc3c(c2)CCC(=O)N3)oc2ccccc12 [Compound G, (E)-N-methyl-N-(3-methylbenzofuran-2-ylmethyl)-3-(7-oxo-5,6,7,8-tetrahydro-1,8-naphthyridin-3-yl)acrylamide]
[1]; compound G with Ceftriaxone
  FIC: <2
[1]; compound G with Gatifloxacin
  FIC: <2
[1]; compound G with Meropenem
  FIC: <2
[1]; compound G with Penicillin
  FIC: <2
[2]; compound G with Azithromycin
  FIC: <2
[2]; compound G with Ceftriaxone
  FIC: <2
[2]; compound G with Cefuroxime
  FIC: <2
[2]; compound G with Gatifloxacin
  FIC: 1
[2]; compound G with Levofloxacin
  FIC: 1
[2]; compound G with Meropenem
  FIC: <2
[2]; compound G with Penicillin
  FIC: <2
[3]; compound G with Ceftriaxone
  FIC: <2
[3]; compound G with Cefuroxime
  FIC: <2
[3]; compound G with Gatifloxacin
  FIC: <2
[3]; compound G with Levofloxacin
  FIC: <2
[3]; compound G with Meropenem
  FIC: <2
[4]; compound G with Gatifloxacin
  FIC: <2
[4]; compound G with Meropenem
  FIC: <2
[5]; compound G with Gatifloxacin
  FIC: 0.6
[5]; compound G with Levofloxacin
  FIC: 0.6
[6]; compound G with Azithromycin
  FIC: 0.6
[6]; compound G with Ceftriaxone
  FIC: <2
[6]; compound G with Cefuroxime
  FIC: <2
[6]; compound G with Meropenem
  FIC: 1
[6]; compound G with Penicillin
  FIC: 0.7
[7]; compound G with Ceftriaxone
  FIC: 0.7
[7]; compound G with Gatifloxacin
  FIC: <2
[7]; compound G with Meropenem
  FIC: 0.6
[8]; compound G with Ceftriaxone
  FIC: <2
[8]; compound G with Gatifloxacin
  FIC: <2
[8]; compound G with Levofloxacin
  FIC: <2
[8]; compound G with Meropenem
  FIC: <2
[9]
  FIC: <2
[10]
  FIC: <2
[11]
  FIC: <2
[12]; compound G with Ceftriaxone
  FIC: <2
[12]; compound G with Gatifloxacin
  FIC: <2
[13]; compound G with Ceftriaxone
  FIC: 1
[13]; compound G with Gatifloxacin
  FIC: <2
[13]; compound G with Meropenem
  FIC: 0.6
[14]
  activity against S. pneumoniae (time-kill): no activity
